Reference: patent publication US20250339445A1, “Modulators of Orphan Nuclear Receptors for Treating Pancreatitis, Glioblastoma, Sarcopenia and Stroke” (Emory University, priority 2020, published 2025)
“Also recorded” adds a separate entry of the source.

Tests used:
RORα = target: T1, RORα (Homo sapiens, UniProt P35398); test: RORα activity by luciferase reporter (miR-122 promoter) in Huh-7 cells; format: cell-based
T1 construct: endogenous in cells; host or cells: Huh-7 (Huh7) human hepatocellular carcinoma cells
T1 sequence (P35398 1-523): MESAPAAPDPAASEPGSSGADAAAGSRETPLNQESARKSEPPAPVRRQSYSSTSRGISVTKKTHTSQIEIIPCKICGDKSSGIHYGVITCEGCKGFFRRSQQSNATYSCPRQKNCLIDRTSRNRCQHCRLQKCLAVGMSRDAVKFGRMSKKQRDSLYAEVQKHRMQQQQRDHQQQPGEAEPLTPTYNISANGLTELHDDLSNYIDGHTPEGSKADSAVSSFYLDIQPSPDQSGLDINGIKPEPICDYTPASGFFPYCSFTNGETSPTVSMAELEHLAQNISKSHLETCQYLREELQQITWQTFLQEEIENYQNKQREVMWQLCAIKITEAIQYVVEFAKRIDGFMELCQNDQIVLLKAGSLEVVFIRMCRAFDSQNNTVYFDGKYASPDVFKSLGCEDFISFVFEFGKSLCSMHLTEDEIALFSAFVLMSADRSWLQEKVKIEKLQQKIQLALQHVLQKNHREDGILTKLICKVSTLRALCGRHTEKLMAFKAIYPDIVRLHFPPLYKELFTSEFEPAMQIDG
Procedure: Huh-7 cells were transfected with a luciferase reporter plasmid containing the miR-122 promoter (extends to −900 from the transcription start site) with intact wild-type (WT) RORα response element (RORE) or mutated RORE (mut). The cells were treated with Compound 1 one day (24 hours) post-transfection at the indicated concentrations. Luciferase expression was measured after 24 hours of treatment and normalized to Renilla Luciferase activity expressed from a co-transfected pRL plasmid. The pRL Vector, which provides constitutive expression of Renilla luciferase, was used in combination with a firefly luciferase vector to co-transfect cells. Expression of Renilla luciferase provides an internal control value to which expression of the experimental firefly luciferase reporter gene may be normalized.
Luciferase assay. For Luciferase assays, cells grown in 24 well plates were co-transfected with a luciferase reporter plasmid (50 ng) and 1 ng of Renilla Luciferase vector (PRL, Promega) using the TransIT-LT 1 (Mirus) transfection reagent (MIR 2300, Madison, WI). Firefly and Renilla luciferase activity was assessed using the Dual Luciferase Reporter Assay system (Promega). Readings were taken in triplicates on a Mithras LB 940 Luminometer (Berthold Technologies). […]
(§1) Following transfections, the cells were lysed with passive lysis buffer (Cat #E1941; Promega), shaking for 20 min at RT and transferred into appropriate 96-well plate. Firefly and Renilla luciferase activity was assessed using the Dual Luciferase Reporter Assay system (Cat #E1910; Promega) on a luminometer Mithras 2000 (Centro XZ, LB960, Berthold Technologies, Bad Wildbad, Germany). […] Readings were taken in triplicate.
as §1, with “room temperature (RT)” for “RT”, “into the” for “into”, “triplicates. […]” for “triplicate.”
After transfections, the cells were lysed with passive lysis buffer (catalog no. E1941, Promega), shaken for 20 minutes at room temperature, and transferred into the appropriate 96-well plate. Firefly and Renilla luciferase activity was assessed using the Dual Luciferase Reporter Assay system (catalog no. E1910, Promega) on a luminometer Mithras 2000 (Centro XZ, LB960; Berthold Technologies, Bad Wildbad, Germany). […] Readings were taken in triplicate.

RORα-regulated genes = test: Modulation of RORα-regulated genes in healthy C57BL/6 mice, single injection; format: in vivo
Procedure: Healthy C57BL/6 mice were injected i.p. once with 7.5 mg/kg Compound 1 or saline control. Mice were sacrificed at 1, 2, and 7 day time points post-injection. miR-122 and Gpase 6 mRNA levels were determined by qRT-PCR for each time point. MicroRNA levels were normalized to RNU6; plasma miR-122 was normalized to spiked in C. elegans miR-39; and mRNA levels were normalized to HPRT.
Compound 1 and AntagomiR injections to mice. C57BL/6 male mice, 7-8 weeks old, or Sgp130FC, 9-month-old male mice, were injected i.p. with 7.5 mg/kg Compound 1 dissolved in saline and 3% DMSO. Saline was injected as control. Mice were hydrodynamic tail vain injected with antagomiR-122 or antagomiR-control (negative control) (5 μg/mouse in 1.5 ml saline). Mice were sacrificed according to the legend of the figure describing the experimental results and the livers, white adipose and skeletal muscle tissues were frozen in liquid nitrogen or in OCT embedded frozen blocks, for further RNA and histologic analysis. AntagomiRs were obtained from Sigma Aldrich, see Table 3.

For `O=C1Nc2cc(C(=O)N3CCC(Cc4ccccc4)CC3)ccc2Nc2ccccc21` [Compound 1], which “Induction of MIR122 promoter, compared with screened set and SR1078” value (RORα; Huh7, overnight, 1 μM tested compounds, 10 μM SR1078) is on record?
Its value is “most potent”.

And the “Luciferase expression from miR-122 promoter with mutated RORE” value (RORα; Huh-7, mutated RORE)?
Its value is “negates activity; also recorded: no activity; also recorded: no induction”.

What about the “Luciferase expression from miR-122 promoter with WT RORE” value (RORα; Huh-7, wild-type RORE, 24 hours of treatment) of the same compound?
The value was “dose-dependent increase; also recorded: induces expression of RORα-regulated luciferase; also recorded: increase expression of MIR122 promoter activity”.

And the “Gpase6 (G6Pase) mRNA, RORα target gene” value (RORα-regulated genes; 7.5 mg/kg i.p. once, liver, up to 7 days)?
Its value is “significantly up-regulated; also recorded: increase”.

And the “miR-18 and miR-126 levels (controls)” value (RORα-regulated genes; 7.5 mg/kg i.p. once, over 7 days)?
The value was “not affected”.

And the “miR-122 levels in plasma and liver” value (RORα-regulated genes; 7.5 mg/kg i.p. once, up to 7 days post-injection)?
The value was “increased”.

And the “Hepatic MIR122 precursors (pri-MIR122 and pre-MIR122)” value (RORα-regulated genes; single administration)?
The value was “increase”.

What about the “Mature MIR122 levels in WAT, muscle and heart tissues” value (RORα-regulated genes; single administration) of the same compound?
The value was “increased significantly”.

And the “Three MIR122 target genes in heart tissue” value (RORα-regulated genes; single administration)?
The value was “significantly down-regulated”.

And the “AldoA, MIR122 target” value (RORα-regulated genes; single administration, liver)?
The value was “decrease”.
